According to ChEMBL document CHEMBL5120745, “LC-MS Identification, Isolation, and Structural Elucidation of Anti-HIV Tigliane Diterpenoids from Wikstroemia lamatsoensis” (J Nat Prod, 2021):

Tests used:
[1] = Cytotoxicity against human MT4 cells assessed as reduction in cell viability by CellTiter-Glo luminescence analysis; assay type: toxicity, cell-based
[2] = Selectivity index, ratio of CC50 for human MT4 cells to IC50 for antiviral activity against HIV-1 NL4-3 infected in human MT4 cells; assay type: toxicity, cell-based; settings: read-out: Ratio CC50/IC50
[3] = tested on: Human immunodeficiency virus 1; test: Antiviral activity against HIV-1 NL4-3 infected in human MT4 cells assessed as inhibition of viral replication by Nano-Glo luciferase assay; assay type: functional, organism-based; settings: Human immunodeficiency virus 1, NL4-3, MT4

## CCCCCCCC(=O)O[C@@]12[C@H](OC(=O)c3ccccc3)[C@@H](C)[C@]3(O)[C@@H]4C=C(C)C(=O)[C@@]4(O)[C@H](O)C(CO)=C[C@H]3[C@@H]1C2(C)C
[1]
  CC50: > 41 nM

## CCCCCCCC(=O)O[C@@]12[C@H](OC(=O)c3ccccc3)[C@@H](C)[C@@]3(O)[C@H]([C@@H]1C2(C)C)[C@@H](OO)C(CO)=C[C@]1(O)C(=O)C(C)=C[C@@H]31
[2]
  selectivity ratio: < 5

## C=C(C)[C@]12C[C@@H](COC(=O)c3ccccc3)[C@@]34OC5(O[C@@H]1[C@@H]3[C@@H]1O[C@]1(CO)[C@@H](O)[C@@]1(O)[C@H]4[C@H]([C@H](C)[C@@H]1OC(=O)c1ccccc1)[C@H](C)CCCCCC[C@H]5O)O2
[1]
  CC50: > 5 nM
[3]
  IC50: 0.07 nM

## CCCCCCCC(=O)O[C@@]12[C@H](OC(=O)c3ccccc3)[C@@H](C)[C@@]3(O)C(=C[C@](O)(CO)C[C@]4(O)C(=O)C(C)=C[C@@H]34)[C@@H]1C2(C)C
[1]
  CC50: > 41 nM
[3]
  IC50: > 41 nM

## CCCCCCCC(=O)O[C@@]12[C@H](OC(=O)c3ccccc3)[C@@H](C)[C@@]3(O)[C@@H](C(=O)C(CO)=C[C@]4(O)C(=O)C(C)=C[C@@H]34)[C@@H]1C2(C)C
[1]
  CC50: > 41 nM

## CCCCCCCC(=O)O[C@@]12[C@H](OC(=O)c3ccccc3)[C@@H](C)[C@@]3(O)[C@H]([C@@H]1C2(C)C)[C@@H](O)C(CO)=C[C@]1(O)C(=O)C(C)=C[C@@H]31
[1]
  CC50: > 41 nM
[3]
  IC50: > 41 nM

## CCCCCCCC(=O)O[C@@]12[C@H](OC(=O)c3ccccc3)[C@@H](C)[C@@]3(O)[C@@H](C=C(CO)C[C@]4(O)C(=O)C(C)=C[C@@H]34)[C@@H]1C2(C)C
[1]
  CC50: > 41 nM
[3]
  IC50: 0.18 nM

## CCCCCCCC(=O)O[C@@]12C[C@@H](C)[C@@]3(O)[C@H]([C@@H]1C2(C)C)[C@@H](OO)C(CO)=C[C@]1(O)C(=O)C(C)=C[C@@H]31
[1]
  CC50: > 41 nM
[3]
  IC50: > 41 nM

## CCCCCCCC(=O)O[C@@]12C[C@@H](C)[C@@]3(O)[C@@H](C(=O)C(CO)=C[C@]4(O)C(=O)C(C)=C[C@@H]34)[C@@H]1C2(C)C
[1]
  CC50: > 41 nM
[3]
  IC50: > 41 nM
